From ChEMBL document CHEMBL1201862, “PubChem BioAssay data set” (2004)
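The compound was tested at five concentrations on cells cultured in 96-well plates, with a 48-hour exposure period. GI50: concentration for 50% inhibition of growth.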 Calls of active or inactive are those of the source. Rule as the data show it: active = GI50 up to about 1.1 µM and inactive = higher.

Tests used:
Experiment in all cases: DTP human tumour cell line panel, 48 h
BT-549 = test system: BT-549
DMS-114 = test system: DMS-114
DMS-273 = test system: DMS-273
XF498 = test system: XF498
KM-20L2 = test system: KM-20L2
M19-MEL = test system: M19-MEL
LXFL 529 = test system: LXFL 529
RXF 631 = test system: RXF 631

Measured: GI50

Oc1ccc2ccccc2c1/N=N/c1ccccc1
inactive: BT-549 > 100 µM

CC1=C2C(O)C(C(C)C(=O)NC(C)C)CCC2(C)C=CC1=O (stereo not drawn)
inactive: DMS-114 > 100 µM | DMS-273 > 100 µM | XF498 > 100 µM | KM-20L2 > 100 µM

O=C(NC1C=Nc2ccc([N+](=O)[O-])cc2NC1=O)c1cc(Cl)cc([N+](=O)[O-])c1 (stereo not drawn)
inactive: M19-MEL > 100 µM | LXFL 529 > 100 µM | DMS-114 19.7 µM | DMS-273 99.5 µM | XF498 > 100 µM | KM-20L2 > 100 µM

COc1nc(C#CCC(C)O)nc(OC)n1 (stereo not drawn)
inactive: BT-549 18.4 µM

Cc1cn(C2CC(N)C(C(=O)NCC(=O)O)O2)c(=O)[nH]c1=O (stereo not drawn)
inactive: BT-549 > 100 µM

COC1OC2COC(c3ccccc3)OC2C(OC(=S)c2ccccc2)C1O (stereo not drawn)
inactive: BT-549 > 100 µM

N#CN=C(NCCO)NCCO
inactive: M19-MEL > 100 µM | LXFL 529 > 100 µM | DMS-114 > 100 µM | RXF 631 > 100 µM | XF498 > 100 µM | KM-20L2 > 100 µM

C=CCc1c(O)c2c(c3oc(=O)cc(C)c13)CC(C)O2 (stereo not drawn)
inactive: M19-MEL 72.4 µM | LXFL 529 > 100 µM | DMS-114 > 100 µM | DMS-273 > 100 µM | KM-20L2 > 100 µM

Cc1ccc(N2C(=O)C3CSCN3C2=O)cc1 (stereo not drawn)
inactive: M19-MEL > 100 µM | DMS-114 > 100 µM | XF498 > 100 µM
